# Assay results published in US9573930B2 (Quanticel Pharmaceuticals, Inc., priority 2014, dated 2017).
# Molecular target: full-length human LSD1 (Homo sapiens (Human), UniProt O60341)
# Assay: In vitro enzyme inhibition assay LSD-1 (TR-FRET)
# Type: biochemical
# Conditions: H3K4me1-biotin peptide
# Experimental: This assay determines the ability of a test compound to inhibit LSD1 demethylase activity.
# The enzymatic assay of LSD1 activity is based on Time Resolved-Fluorescence Resonance Energy Transfer (TR-FRET) detection.
# The ability of the compounds disclosed herein to inhibit LSD1 activity was quantified and the respective IC50 value was determined.
row,Compound,IC50
1,"COc1ccc(-c2c(-c3ccc(C#N)c(F)c3)nc(N(C)C[C@H]3CCNC3)n(C)c2=O)cc1 [Example 54, 2-fluoro-4-[5-(4-methoxy-phenyl)-1-methyl-2-(methyl-(3S)-pyrrolidin-3-ylmethyl-amino)-6-oxo-1,6-dihydro-pyrimidin-4-yl]-benzonitrile]",< 100 nM
2,"COc1ccc(-c2c(-c3ccc(C#N)c(F)c3)nc(N(C)C3CCNCC3)n(C)c2=O)cc1 [Example 55, 2-fluoro-4-[5-(4-methoxy-phenyl)-1-methyl-2-(methyl-piperidin-4-yl-amino)-6-oxo-1,6-dihydro-pyrimidin-4-yl]-benzonitrile]",< 100 nM
3,"CN(C)c1ccc(-c2c(-c3ccc(C#N)c(F)c3)nc(N3CCC(N)CC3)n(C)c2=O)cn1 [Example 57, 4-[2-(4-amino-piperidin-1-yl)-5-(6-dimethylamino-pyridin-3-yl)-1-methyl-6-oxo-1,6-dihydro-pyrimidin-4-yl]-2-fluoro-benzonitrile]",< 100 nM
4,"CNC1CCN(c2nc(-c3ccc(C#N)c(F)c3)c(-c3ccc(OC)nc3)c(=O)n2C)CC1 [Example 58, 2-fluoro-4-[5-(6-methoxy-pyridin-3-yl)-1-methyl-2-(4-methylamino-piperidin-1-yl)-6-oxo-1,6-dihydro-pyrimidin-4-yl]-benzonitrile]",< 100 nM
5,"CN(C)c1ccc(-c2c(-c3ccc(C#N)c(F)c3)nc(N3CCC(N)CC3)n(C)c2=O)cc1 [Example 59, 4-[2-(4-amino-piperidin-1-yl)-5-(4-dimethylamino-phenyl)-1-methyl-6-oxo-1,6-dihydro-pyrimidin-4-yl]-2-fluoro-benzonitrile]",< 100 nM
6,"Cn1c(N2CCC(N)CC2)nc(-c2ccc(C#N)c(F)c2)c(-c2ccc(N3CCCC3)nc2)c1=O [Example 60, 4-[2-(4-amino-piperidin-1-yl)-1-methyl-6-oxo-5-(6-pyrrolidin-1-yl-pyridin-3-yl)-1,6-dihydro-pyrimidin-4-yl]-2-fluoro-benzonitrile]",< 100 nM
7,"COc1ccc(-c2c(-c3ccc(C#N)c(F)c3)nc(N3CCCNCC3)n(C)c2=O)cn1 [Example 61, 4-[2-[1,4]diazepan-1-yl-5-(6-methoxy-pyridin-3-yl)-1-methyl-6-oxo-1,6-dihydro-pyrimidin-4-yl]-2-fluoro-benzonitrile]",< 100 nM
8,COc1ccc(-c2c(-c3ccc(C#N)cc3)nc(N3CCCNCC3)n(C)c2=O)cn1 [Example 62],< 100 nM
9,"CN(C)c1ccc(-c2c(-c3ccc(C#N)c(F)c3)nc(N3CCCNCC3)n(C)c2=O)cn1 [Example 63, 4-[2-[1,4]diazepan-1-yl-5-(6-dimethylamino-pyridin-3-yl)-1-methyl-6-oxo-1,6-dihydro-pyrimidin-4-yl]-2-fluoro-benzonitrile]",< 100 nM
10,"COc1ccc(-c2c(-c3ccc(C#N)c(F)c3)nc(N3CC(N)C3)n(C)c2=O)cc1 [Example 64, 4-[2-(3-amino-azetidin-1-yl)-5-(4-methoxy-phenyl)-1-methyl-6-oxo-1,6-dihydro-pyrimidin-4-yl]-2-fluoro-benzonitrile]",< 100 nM
11,"CNC1CCN(c2nc(-c3ccc(C#N)c(F)c3)c(-c3ccc4nn(C)cc4c3)c(=O)n2C)CC1 [Example 65, 2-fluoro-4-[1-methyl-2-(4-methylamino-piperidin-1-yl)-5-(2-methyl-2H-indazol-5-yl)-6-oxo-1,6-dihydro-pyrimidin-4-yl]-benzonitrile]",< 100 nM
12,"Cn1cc2cc(-c3c(-c4ccc(C#N)c(F)c4)nc(N4CCCNCC4)n(C)c3=O)ccc2n1 [Example 66, 4-[2-[1,4]diazepan-1-yl-1-methyl-5-(2-methyl-2H-indazol-5-yl)-6-oxo-1,6-dihydro-pyrimidin-4-yl]-2-fluoro-benzonitrile]",< 100 nM
13,"CN(C)c1ccc(-c2c(-c3ccc(C#N)cc3)nc(N3CCCNCC3)n(C)c2=O)cn1 [Example 67, 4-[2-[1,4]diazepan-1-yl-5-(6-dimethylamino-pyridin-3-yl)-1-methyl-6-oxo-1,6-dihydro-pyrimidin-4-yl]-benzonitrile]",< 100 nM
14,"Cn1c(N2CCC(N)CC2)nc(-c2ccc(C#N)c(F)c2)c(-c2ccc(N3CCOCC3)nc2)c1=O [Example 68, 4-[2-(4-amino-piperidin-1-yl)-1-methyl-5-(6-morpholin-4-yl-pyridin-3-yl)-6-oxo-1,6-dihydro-pyrimidin-4-yl]-2-fluoro-benzonitrile]",< 100 nM
15,"COc1ccc(-c2c(-c3ccc(C#N)c(F)c3)nc(N3CC(CN)C3)n(C)c2=O)cc1 [Example 69, 4-[2-(3-aminomethyl-azetidin-1-yl)-5-(4-methoxy-phenyl)-1-methyl-6-oxo-1,6-dihydro-pyrimidin-4-yl]-2-fluoro-benzonitrile]",< 100 nM
16,"CNCC1CN(c2nc(-c3ccc(C#N)c(F)c3)c(-c3ccc(OC)cc3)c(=O)n2C)C1 [Example 70, 2-fluoro-4-[5-(4-methoxy-phenyl)-1-methyl-2-(3-methylaminomethyl-azetidin-1-yl)-6-oxo-1,6-dihydro-pyrimidin-4-yl]-benzonitrile]",< 100 nM
17,"CN(C)C1CCN(c2nc(-c3ccc(C#N)c(F)c3)c(-c3ccc4nn(C)cc4c3)c(=O)n2C)CC1 [Example 71, 4-[2-(4-dimethylamino-piperidin-1-yl)-1-methyl-5-(2-methyl-2H-indazol-5-yl)-6-oxo-1,6-dihydro-pyrimidin-4-yl]-2-fluoro-benzonitrile]",< 100 nM
18,"CN(C)C1CCN(c2nc(-c3ccc(C#N)c(F)c3)c(-c3ccc4c(cnn4C)c3)c(=O)n2C)CC1 [Example 72, 4-[2-(4-dimethylamino-piperidin-1-yl)-1-methyl-5-(1-methyl-1H-indazol-5-yl)-6-oxo-1,6-dihydro-pyrimidin-4-yl]-2-fluoro-benzonitrile]",< 100 nM
19,"Cn1c(N2CCC(N)CC2)nc(-c2ccc(C#N)c(F)c2)c(-c2ccc3[nH]ccc3c2)c1=O [Example 73, 4-[2-(4-amino-piperidin-1-yl)-5-(1H-indol-5-yl)-1-methyl-6-oxo-1,6-dihydro-pyrimidin-4-yl]-2-fluoro-benzonitrile]",< 100 nM
20,"Cn1c(N2CCC(N)CC2)nc(-c2ccc(C#N)c(F)c2)c(-c2ccc3ccn(C)c3c2)c1=O [Example 76, 4-[2-(4-amino-piperidin-1-yl)-1-methyl-5-(1-methyl-1H-indol-6-yl)-6-oxo-1,6-dihydro-pyrimidin-4-yl]-2-fluoro-benzonitrile]",< 100 nM
21,"Cn1c(N2CCC(N)CC2)nc(-c2ccc(C#N)c(F)c2)c(-c2ccc3cn[nH]c3c2)c1=O [Example 77, 4-[2-(4-amino-piperidin-1-yl)-5-(1H-indazol-6-yl)-1-methyl-6-oxo-1,6-dihydro-pyrimidin-4-yl]-2-fluoro-benzonitrile]",< 100 nM

# Next, values leading:
row,IC50,Compound
1,< 100 nM,"Cn1c(N2CCC(N)CC2)nc(-c2ccc(C#N)cc2)c(-c2ccc(C(N)=O)c(F)c2)c1=O [Example 41, 4-[2-(4-aminopiperidyl)-6-(4-cyanophenyl)-3-methyl-4-oxo(3-hydropyrimidin-5-yl)]-2-fluorobenzamide]"
2,< 100 nM,"Cn1c(N2CCC(N)CC2)nc(-c2ccc(C#N)c(F)c2)c(-c2ccc3c(c2)CNC3=O)c1=O [Example 42, 4-[2-(4-amino-piperidin-1-yl)-1-methyl-6-oxo-5-(1-oxo-2,3-dihydro-1H-isoindol-5-yl)-1,6-dihydro-pyrimidin-4-yl]-2-fluoro-benzonitrile]"
3,< 100 nM,"COc1ccc(-c2c(-c3ccc(C#N)cc3)nc(NC[C@H]3CCNC3)n(C)c2=O)cc1F [Example 44, 4-{5-(3-fluoro-4-methoxy-phenyl)-1-methyl-6-oxo-2-[(3S)-(pyrrolidin-3-ylmethyl)-amino]-1,6-dihydro-pyrimidin-4-yl}-benzonitrile]"
4,< 100 nM,"COc1ccc(-c2c(-c3ccc(C#N)cc3)nc(NC[C@@H]3CCNC3)n(C)c2=O)cc1F [Example 45, 4-{5-(3-fluoro-4-methoxy-phenyl)-1-methyl-6-oxo-2-[(3R)-(pyrrolidin-3-ylmethyl)-amino]-1,6-dihydro-pyrimidin-4-yl}-benzonitrile]"
5,< 100 nM,"COc1ccc(-c2c(-c3ccc(C#N)c(F)c3)nc(N3CCCNCC3)n(C)c2=O)cc1F [Example 46, 4-[2-[1,4]diazepan-1-yl-5-(3-fluoro-4-methoxy-phenyl)-1-methyl-6-oxo-1,6-dihydro-pyrimidin-4-yl]-2-fluoro-benzonitrile]"
6,< 100 nM,"COc1ccc(-c2c(-c3ccc(C#N)c(F)c3)nc(N3CCNCC3)n(C)c2=O)cc1F [Example 47, 2-fluoro-4-[5-(3-fluoro-4-methoxy-phenyl)-1-methyl-6-oxo-2-piperazin-1-yl-1,6-dihydro-pyrimidin-4-yl]-benzonitrile]"
7,< 100 nM,"CN(C)c1ncc(-c2c(-c3ccc(C#N)c(F)c3)nc(N3CCC(N)CC3)n(C)c2=O)cn1 [Example 49, 4-[2-(4-amino-piperidin-1-yl)-2′-dimethylamino-1-methyl-6-oxo-1,6-dihydro-[5,5′]bipyrimidinyl-4-yl]-2-fluoro-benzonitrile]"
8,< 100 nM,"CNC(=O)c1ccc(-c2c(-c3ccc(C#N)c(F)c3)nc(N3CCC(N)CC3)n(C)c2=O)cn1 [Example 50, 5-[2-(4-amino-piperidin-1-yl)-4-(4-cyano-3-fluoro-phenyl)-1-methyl-6-oxo-1,6-dihydro-pyrimidin-5-yl]-pyridine-2-carboxylic acid methylamide]"
9,< 100 nM,"COc1ccc(-c2c(-c3ccc(C#N)c(F)c3)nc(NC[C@H]3CCNC3)n(C)c2=O)cc1 [Example 51, 2-fluoro-4-{5-(4-methoxy-phenyl)-1-methyl-6-oxo-2-[(3S)-(pyrrolidin-3-ylmethyl)-amino]-1,6-dihydro-pyrimidin-4-yl}-benzonitrile]"
10,< 100 nM,"COc1ccc(-c2c(-c3ccc(C#N)c(F)c3)nc(NC[C@@H]3CCNC3)n(C)c2=O)cc1 [Example 52, 2-luoro-4-{5-(4-methoxy-phenyl)-1-methyl-6-oxo-2-[(3R)-(pyrrolidin-3-ylmethyl)-amino]-1,6-dihydro-pyrimidin-4-yl}-benzonitrile]"
11,< 100 nM,"COc1ccc(-c2c(-c3ccc(C#N)c(F)c3)nc(NC3CCNCC3)n(C)c2=O)cc1 [Example 53, 2-fluoro-4-[5-(4-methoxy-phenyl)-1-methyl-6-oxo-2-(piperidin-4-ylamino)-1,6-dihydro-pyrimidin-4-yl]-benzonitrile]"
